Source: patent EP2402012B1, “Liquid formulations of rupatadine fumarate” (J. Uriach y Compania S.A., priority 2010, dated 2012)
Structures can show the parent of a compound that is named as a salt.

What was measured:
[1] = Rate of formation of Compound II in aqueous solutions of rupatadine fumarate on storage (HPLC, Method 2); type: physicochemical; details: aqueous solution 1 g(rupatadine fumarate)/L
Method: The HPLC method used to determine the % Compound II present in a formulation is based on the European Pharmacopoeia 2.2.29 using the following conditions: • room temperature and atmospheric pressure • column: C1810 µm (3.9 mm x 30 cm) • eluent: Methanol - Phosphate buffer solution pH 4.2 (75:25) • eluent flow: 1.3 mL/min • detection: UV-Visible spectrophotometer at 265 nm • retention time of Rupatadine: aprox. 8.9 min • relative retention time of Compound II: aprox. 0.43 Reference standard solutions of rupatadine and Compound II (which can be prepared as described in Reference Example 3) are used in the identification of the components. The test sample is compared to the equivalent placebo (same formulation without rupatadine fumarate) to check overlapping peaks with other excipients in the formulation. The % Compound II is calculated as 100*(area of Compound II peak)/(area of rupatadine peak). Different aqueous solutions comprising rupatadine fumarate at a concentration of 1 g(rupatadine fumarate)/L at different pH (3.41, 4.38 and 5.00), obtained adding the required amount of solutions of HCl(aq) or NaOH(aq) to solutions containing only water and rupatadine fumarate, were stored at different temperature conditions (room temperature and 40°C/75%HR) during two months and analyzed at the beginning, at one month and at the end of the period using Method 2, see table below.

[2] = Solubility of rupatadine fumarate in water and in buffer solutions at different pH; type: physicochemical; details: water; 25 g/L added, stirring 16 - 24 h, filtered; room temperature
Method: The solubility of rupatadine fumarate was determined by adding 25 g/L of rupatadine fumarate to water and stirring during 16 - 24 h. The resulting solution was filtered and the amount of rupatadine determined using the Method 2. Using the same procedure, but using buffer solutions of known pH instead of water, the solubility of rupatadine fumarate at different pH was determined (the pH of the solution was measured prior to the addition of rupatadine fumarate).

## Cc1cncc(CN2CCC(=C3c4ccc(Cl)cc4CCc4cccnc43)CC2)c1 [rupatadine fumarate]
[1]; pH 3.41, 25 ± 2°C
  % Compound II 1 month: 0.174%
  % Compound II 2 months: 0.276%
[1]; pH 3.41, 40 ± 2°C
  % Compound II 1 month: 0.737%
  % Compound II 2 months: 1.396%
[1]; pH 3.41
  % Compound II initial: 0.035%
[1]; pH 4.38, 25 ± 2°C
  % Compound II 1 month: 0.090%
  % Compound II 2 months: 0.142%
[1]; pH 4.38, 40 ± 2°C
  % Compound II 1 month: 0.357%
  % Compound II 2 months: 0.646%
[1]; pH 4.38
  % Compound II initial: 0.036%
[1]; pH 5.00, 25 ± 2°C
  % Compound II 1 month: 0.039%
  % Compound II 2 months: 0.051%
[1]; pH 5.00, 40 ± 2°C
  % Compound II 1 month: 0.112%
  % Compound II 2 months: 0.182%
[1]; pH 5.00
  % Compound II initial: 0.040%
[2]
  solubility: 2900 µg/mL
